Among the data in ChEMBL document CHEMBL3739362, “Brominated Variant of the Lantibiotic NAI-107 with Enhanced Antibacterial Potency” (2015) are MIC values, retold here.

SMILES strings stand for the structures. Converted amounts (≈) assume the structure as drawn. Bounds are passed on as bounds.

Type in all cases: functional
Assay [1] concerns Staphylococcus aureus. As to the kind of experiment: Antibacterial activity against glycopeptide-intermediate Staphylococcus aureus L3797 by broth microdilution assay. (Broth dilution looks for growth in wells or tubes with falling amounts of substance.)
The next assay has as its system Enterococcus faecium. As to the kind of experiment: Antibacterial activity against vancomycin-resistant Enterococcus faecium L569 by broth microdilution assay.
Assay [2] concerns Enterococcus faecalis. As to the kind of experiment: Antibacterial activity against Enterococcus faecalis L559 by broth microdilution assay.
For another assay, the system named is Streptococcus pyogenes. As to the kind of experiment: Antibacterial activity against Streptococcus pyogenes L49 by broth microdilution assay.
Assay [3] deals with Enterococcus faecalis. As to the kind of experiment: Antibacterial activity against vancomycin-resistant Enterococcus faecalis L560 by broth microdilution assay.
Assay [4] relates to Streptococcus pneumoniae. As to the kind of experiment: Antibacterial activity against Streptococcus pneumoniae ATCC 49619 by broth microdilution assay.
Assay [5] has as its system Streptococcus pneumoniae. As to the kind of experiment: Antibacterial activity against Streptococcus pneumoniae L44 by broth microdilution assay.
For assay [6], the system named is Staphylococcus aureus. As to the kind of experiment: Antibacterial activity against glycopeptide-intermediate Staphylococcus aureus L3798 by broth microdilution assay.

The MIC is the smallest concentration in the dilution series that meets the test's criterion for growth inhibition. A lower MIC goes with greater potency. Regarding `CN[C@@H](CC(C)C)C(=O)N[C@H]1C(=O)N[C@@H](CC(N)=O)C(=O)N[C@H]2C(=O)N[C@H]3C(=O)N[C@H](C(=O)N[C@@H](C(=O)O)c4cc(O)cc(O)c4-c4cc3ccc4O)[C@H](O)c3ccc(c(Cl)c3)Oc3cc2cc(c3O[C@H]2O[C@@H](CO)[C@H](O)[C@@H](O)[C@@H]2O[C@@H]2C[C@@](C)(N)[C@@H](O)[C@@H](C)O2)Oc2ccc(cc2Cl)[C@H]1O`, the MIC is 8 µg/mL (≈ 5.52 µM) with Staphylococcus aureus [1]; > 64 µg/mL against Enterococcus faecium; 1 µg/mL (≈ 0.69 µM) with Enterococcus faecalis [2]; 0.5 µg/mL (≈ 0.345 µM) in the assay on Streptococcus pyogenes; > 64 µg/mL against Enterococcus faecalis [3]; 0.25 µg/mL (≈ 0.173 µM) against Streptococcus pneumoniae [4]. For the same compound, the MIC with Streptococcus pneumoniae [5] was 0.5 µg/mL (≈ 0.345 µM); against Staphylococcus aureus [6], 16 µg/mL (≈ 11 µM).
